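1) Cells in 96-well plates. 2) Compound, 48 h, 5 concentrations. 3) Linear interpolation between surrounding doses. 4) Unreached endpoint = highest concentration. Abbreviation: GI50, concentration required for 50% inhibition of growth.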 Calls of active or inactive are those of the source. No stated cut-off is given here; in the data, active = GI50 up to about 1.1 µM and inactive = higher.
What was measured:
Experiment in all cases: growth of human tumour cells (NCI), 48 h
IGROV-1 = test system: IGROV-1
UACC-257 = test system: UACC-257
SK-MEL-2 = test system: SK-MEL-2
NCI-H522 = test system: NCI-H522
Malme-3M = test system: Malme-3M
NCI-H460 = test system: NCI-H460
SW-620 = test system: SW-620
HCT-116 = test system: HCT-116
NCI-H23 = test system: NCI-H23
786-0 = test system: 786-0
OVCAR-5 = test system: OVCAR-5
CAKI-1 = test system: CAKI-1
SNB-75 = test system: SNB-75
OVCAR-3 = test system: OVCAR-3
MOLT-4 = test system: MOLT-4
U-251 = test system: U-251
OVCAR-8 = test system: OVCAR-8
ACHN = test system: ACHN

Measured: GI50

N#Cc1cccc(NC(=O)c2ccc(C(=O)O)c(C(=O)c3ccc(C(=O)O)c(C(=O)Nc4cccc(C#N)c4)c3)c2)c1
inactive: IGROV-1 > 100 µM | UACC-257 > 100 µM | SK-MEL-2 > 100 µM | NCI-H522 > 100 µM | Malme-3M > 100 µM | NCI-H460 > 100 µM | SW-620 > 100 µM | HCT-116 > 100 µM | NCI-H23 > 100 µM | 786-0 > 100 µM | OVCAR-5 > 100 µM | CAKI-1 > 100 µM | SNB-75 > 100 µM | OVCAR-3 > 100 µM | MOLT-4 > 100 µM | U-251 > 100 µM | OVCAR-8 > 100 µM

COc1ccc2c(c1)[n+]([O-])c(-c1ccc(OC)c(OC)c1)c(N)[n+]2[O-]
inactive: IGROV-1 > 100 µM | UACC-257 31 µM | SK-MEL-2 92.3 µM | NCI-H522 15.9 µM | Malme-3M 46.3 µM | NCI-H460 49.4 µM | SW-620 > 100 µM | NCI-H23 21.2 µM | 786-0 > 100 µM | OVCAR-5 > 100 µM | CAKI-1 32.1 µM | ACHN 51.3 µM | SNB-75 > 100 µM | OVCAR-3 > 100 µM | MOLT-4 78.5 µM | U-251 68.7 µM | OVCAR-8 > 100 µM

Cc1cc2c(c(C(=O)O)c1C)-c1cccc(F)c1C2=O
inactive: IGROV-1 > 100 µM | UACC-257 > 100 µM | SK-MEL-2 > 100 µM | NCI-H522 > 100 µM | Malme-3M > 100 µM | NCI-H460 > 100 µM | SW-620 > 100 µM | NCI-H23 > 100 µM | 786-0 > 100 µM | OVCAR-5 > 100 µM | CAKI-1 > 100 µM | ACHN > 100 µM | SNB-75 > 100 µM | OVCAR-3 > 100 µM | MOLT-4 > 100 µM | U-251 > 100 µM | OVCAR-8 > 100 µM

CCCCN(CCCC)CC(C(=O)Nc1ccc([N+](=O)[O-])cc1[N+](=O)[O-])/C(C)=N\NC(=O)C[N+](C)(C)C (stereo not drawn)
inactive: IGROV-1 > 100 µM | UACC-257 > 100 µM | SK-MEL-2 > 100 µM | NCI-H522 41.9 µM | Malme-3M > 100 µM | NCI-H460 55.7 µM | HCT-116 69.5 µM | NCI-H23 > 100 µM | 786-0 > 100 µM | OVCAR-5 > 100 µM | CAKI-1 42.7 µM | ACHN > 100 µM | SNB-75 29 µM | OVCAR-3 > 100 µM | MOLT-4 > 100 µM | U-251 > 100 µM | OVCAR-8 > 100 µM
